System: SKBR3 cells express WT PI3Ka
Assay: In vitro cell proliferation, SKBR3 cells (CellTiter-Glo)
Assay type: cell-based
Conditions: inhibition of proliferation, 72 hours
Outline: (§1)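 T47D (PI3Kα H1047R; RPMI, 10% FBS, insulin 0.2 units/mL) or SKBR3 (WT PI3Kα; McCoys 5a, 10% FBS) cells seeded at 1,500 cells/well on 10-point compound dilutions, grown 72 h at 37 °C. CellTiter-Glo luminescence; inhibition normalised to 0.1% DMSO and 10 uM alpelisib, EC50 from four-parameter fit.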

Structure (SMILES) | EC50 [µM]
Cc1cc(C(C)Nc2ccccc2C(=O)O)c2cc(N3CCC4(CCOCC4)CC3)n(C)c(=O)c2c1 (single isomer, unassigned) [Example 166] | > 15
Cc1cc(C(C)Nc2ccccc2C(=O)O)c2cc(N3CCC4(CCOCC4)CC3)n(C)c(=O)c2c1 (single isomer, unassigned) [Example 167] | 2 to 15
Cc1cc(C(C)Nc2ccccc2C(=O)O)c2cc(N3CCC4(CCCCO4)CC3)n(C)c(=O)c2c1 (single isomer, unassigned) [Example 168] | > 15
Cc1cc(C(C)Nc2ccccc2C(=O)O)c2cc(N3CCC4(CCCCO4)CC3)n(C)c(=O)c2c1 (single isomer, unassigned) [Example 169] | > 15
Cc1cc(C(C)Nc2ccccc2C(=O)O)c2cc(N3Cc4ccc(F)c(F)c4C3)n(C)c(=O)c2c1 (single isomer, unassigned) [Example 178] | > 15
Cc1cc(C(C)Nc2ccccc2C(=O)O)c2cc(N3CC(C)(O)C3)n(C)c(=O)c2c1 (single isomer, unassigned) [Example 182] | > 15
COC1(C)CN(c2cc3c(C(C)Nc4ccccc4C(=O)O)cc(C)cc3c(=O)n2C)C1 (single isomer, unassigned) [Example 213] | > 15
Cc1cc([C@@H](C)Nc2ccccc2C(=O)O)c2cc(N3CC4CC3CN4CC(F)(F)F)n(C)c(=O)c2c1 (single isomer, unassigned) [Example 224] | > 15
CCN1CCN(c2cc3c([C@@H](C)Nc4ccccc4C(=O)O)cc(C)cc3c(=O)n2C)CC1C(F)(F)F (single isomer, unassigned) [Example 266] | > 15
CCN1CCN(c2cc3c([C@@H](C)Nc4ccccc4C(=O)O)cc(C)cc3c(=O)n2C)CC1C(F)(F)F (single isomer, unassigned) [Example 267] | 2 to 15
Cc1cc([C@@H](C)Nc2ccccc2C(=O)O)c2cc(N3CCN(C(C)C(F)(F)F)CC3)n(C)c(=O)c2c1 (single isomer, unassigned) [Example 279] | > 15
Cc1cc([C@@H](C)Nc2ccccc2C(=O)O)c2cc(N3CCN(C)C(C(F)(F)F)C3)n(C)c(=O)c2c1 (single isomer, unassigned) [Example 302] | > 15
COC[C@@H]1CC1c1cc2c([C@@H](C)Nc3ccccc3C(=O)O)cc(C)cc2c(=O)n1C (single isomer, unassigned) [Example 308] | 2 to 15
Cc1cc([C@@H](C)Nc2ccccc2C(=O)O)c2cc(C3C[C@H]3C)n(C)c(=O)c2c1 (single isomer, unassigned) [Example 310] | 2 to 15
Cc1cc([C@@H](C)Nc2ccccc2C(=O)O)c2cc(C3C[C@H]3C(C)C)n(C)c(=O)c2c1 (single isomer, unassigned) [Example 311] | > 15

System: T47D cells expressing mutant PI3Ka (H1047R)
Assay: In vitro cell proliferation, T47D cells (CellTiter-Glo)
Assay type: cell-based
Conditions: Homo sapiens, T47D, 72 h, inhibition of proliferation, read-out: Avg T-47D EC50
Outline: as §1

Structure (SMILES) | EC50 [µM]
CCN1CCN(c2cc3c([C@@H](C)Nc4ccccc4C(=O)O)cc(C)cc3c(=O)n2C)CC1C(F)(F)F (single isomer, unassigned) [Example 266] | 0.001 to 0.5
COC[C@@H]1CC1c1cc2c([C@@H](C)Nc3ccccc3C(=O)O)cc(C)cc2c(=O)n1C (single isomer, unassigned) [Example 308] | 0.001 to 0.5
Cc1cc([C@@H](C)Nc2ccccc2C(=O)O)c2cc(C3C[C@H]3C)n(C)c(=O)c2c1 (single isomer, unassigned) [Example 310] | 0.001 to 0.5
Cc1cc([C@@H](C)Nc2ccccc2C(=O)O)c2cc(C3C[C@H]3C(C)C)n(C)c(=O)c2c1 (single isomer, unassigned) [Example 311] | 0.001 to 0.5

Same assay, conditions: inhibition of proliferation, 72 hours, read-out: Avg T-47D EC50

Structure (SMILES) | EC50 [µM]
Cc1cc(C(C)Nc2ccccc2C(=O)O)c2cc(N3CCC4(CCOCC4)CC3)n(C)c(=O)c2c1 (single isomer, unassigned) [Example 166] | 2 to 15
Cc1cc(C(C)Nc2ccccc2C(=O)O)c2cc(N3CCC4(CCOCC4)CC3)n(C)c(=O)c2c1 (single isomer, unassigned) [Example 167] | 0.001 to 0.5
Cc1cc(C(C)Nc2ccccc2C(=O)O)c2cc(N3CCC4(CCCCO4)CC3)n(C)c(=O)c2c1 (single isomer, unassigned) [Example 168] | 0.001 to 0.5
Cc1cc(C(C)Nc2ccccc2C(=O)O)c2cc(N3CCC4(CCCCO4)CC3)n(C)c(=O)c2c1 (single isomer, unassigned) [Example 169] | > 15
Cc1cc(C(C)Nc2ccccc2C(=O)O)c2cc(N3Cc4ccc(F)c(F)c4C3)n(C)c(=O)c2c1 (single isomer, unassigned) [Example 178] | 0.5 to 2
Cc1cc(C(C)Nc2ccccc2C(=O)O)c2cc(N3CC(C)(O)C3)n(C)c(=O)c2c1 (single isomer, unassigned) [Example 182] | 2 to 15
COC1(C)CN(c2cc3c(C(C)Nc4ccccc4C(=O)O)cc(C)cc3c(=O)n2C)C1 (single isomer, unassigned) [Example 213] | 0.5 to 2
Cc1cc([C@@H](C)Nc2ccccc2C(=O)O)c2cc(N3CC4CC3CN4CC(F)(F)F)n(C)c(=O)c2c1 (single isomer, unassigned) [Example 224] | 0.001 to 0.5
CCN1CCN(c2cc3c([C@@H](C)Nc4ccccc4C(=O)O)cc(C)cc3c(=O)n2C)CC1C(F)(F)F (single isomer, unassigned) [Example 267] | 0.001 to 0.5
Cc1cc([C@@H](C)Nc2ccccc2C(=O)O)c2cc(N3CCN(C(C)C(F)(F)F)CC3)n(C)c(=O)c2c1 (single isomer, unassigned) [Example 279] | 0.001 to 0.5
Cc1cc([C@@H](C)Nc2ccccc2C(=O)O)c2cc(N3CCN(C)C(C(F)(F)F)C3)n(C)c(=O)c2c1 (single isomer, unassigned) [Example 302] | 0.001 to 0.5

System: phosphorylation of AKT (pAKT) in T47D cells expressing mutant PI3Ka (H1047R)
Assay: In vitro cell pAKT (Ser473) HTRF, T47D cells
Assay type: cell-based
Conditions: Homo sapiens, T47D, 6 h, cellular pAKT, T47D cells, mutant PI3Ka (H1047R), 6 hours; read-out: Avg T-47D IC50
Outline: (§2)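 pAKT (Ser473) was quantified by HTRF in lysates from cells exposed 6 h at 37 °C to 10-point compound series, with T47D in insulin-supplemented RPMI/10% FBS and SKBR3 in McCoy's 5a/10% FBS. Controls: 0.1% DMSO (high) and 10 uM alpelisib (low). IC50 from sigmoidal curve fitting.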

Structure (SMILES) | IC50 [µM]
CCN1CCN(c2cc3c([C@@H](C)Nc4ccccc4C(=O)O)cc(C)cc3c(=O)n2C)CC1C(F)(F)F (single isomer, unassigned) [Example 266] | 0.001 to 0.5
COC[C@@H]1CC1c1cc2c([C@@H](C)Nc3ccccc3C(=O)O)cc(C)cc2c(=O)n1C (single isomer, unassigned) [Example 308] | 0.001 to 0.5
Cc1cc([C@@H](C)Nc2ccccc2C(=O)O)c2cc(C3C[C@H]3C)n(C)c(=O)c2c1 (single isomer, unassigned) [Example 310] | 0.001 to 0.5
Cc1cc([C@@H](C)Nc2ccccc2C(=O)O)c2cc(C3C[C@H]3C(C)C)n(C)c(=O)c2c1 (single isomer, unassigned) [Example 311] | 0.001 to 0.5

Same assay, conditions: cellular pAKT, T47D cells, mutant PI3Ka (H1047R), 6 hours; read-out: Avg T-47D IC50

Structure (SMILES) | IC50 [µM]
Cc1cc(C(C)Nc2ccccc2C(=O)O)c2cc(N3CCC4(CCOCC4)CC3)n(C)c(=O)c2c1 (single isomer, unassigned) [Example 166] | 2 to 15
Cc1cc(C(C)Nc2ccccc2C(=O)O)c2cc(N3CCC4(CCOCC4)CC3)n(C)c(=O)c2c1 (single isomer, unassigned) [Example 167] | 0.001 to 0.5
Cc1cc(C(C)Nc2ccccc2C(=O)O)c2cc(N3CCC4(CCCCO4)CC3)n(C)c(=O)c2c1 (single isomer, unassigned) [Example 168] | 0.001 to 0.5
Cc1cc(C(C)Nc2ccccc2C(=O)O)c2cc(N3CCC4(CCCCO4)CC3)n(C)c(=O)c2c1 (single isomer, unassigned) [Example 169] | 2 to 15
Cc1cc(C(C)Nc2ccccc2C(=O)O)c2cc(N3Cc4ccc(F)c(F)c4C3)n(C)c(=O)c2c1 (single isomer, unassigned) [Example 178] | 0.001 to 0.5
Cc1cc(C(C)Nc2ccccc2C(=O)O)c2cc(N3CC(C)(O)C3)n(C)c(=O)c2c1 (single isomer, unassigned) [Example 182] | 2 to 15
COC1(C)CN(c2cc3c(C(C)Nc4ccccc4C(=O)O)cc(C)cc3c(=O)n2C)C1 (single isomer, unassigned) [Example 213] | 0.001 to 0.5
Cc1cc([C@@H](C)Nc2ccccc2C(=O)O)c2cc(N3CC4CC3CN4CC(F)(F)F)n(C)c(=O)c2c1 (single isomer, unassigned) [Example 224] | 0.001 to 0.5
CCN1CCN(c2cc3c([C@@H](C)Nc4ccccc4C(=O)O)cc(C)cc3c(=O)n2C)CC1C(F)(F)F (single isomer, unassigned) [Example 267] | 0.001 to 0.5
Cc1cc([C@@H](C)Nc2ccccc2C(=O)O)c2cc(N3CCN(C(C)C(F)(F)F)CC3)n(C)c(=O)c2c1 (single isomer, unassigned) [Example 279] | 0.001 to 0.5
Cc1cc([C@@H](C)Nc2ccccc2C(=O)O)c2cc(N3CCN(C)C(C(F)(F)F)C3)n(C)c(=O)c2c1 (single isomer, unassigned) [Example 302] | 0.001 to 0.5

System: phosphorylation of AKT (pAKT) in SKBR3 cells express WT PI3Ka
Assay: In vitro cell pAKT (Ser473) HTRF, SKBR3 cells
Assay type: cell-based
Conditions: Homo sapiens, SK-BR-3, 6 h, cellular pAKT
Outline: as §2

Structure (SMILES) | IC50 [µM]
CCN1CCN(c2cc3c([C@@H](C)Nc4ccccc4C(=O)O)cc(C)cc3c(=O)n2C)CC1C(F)(F)F (single isomer, unassigned) [Example 266] | > 15
Cc1cc([C@@H](C)Nc2ccccc2C(=O)O)c2cc(C3C[C@H]3C)n(C)c(=O)c2c1 (single isomer, unassigned) [Example 310] | > 15
Cc1cc([C@@H](C)Nc2ccccc2C(=O)O)c2cc(C3C[C@H]3C(C)C)n(C)c(=O)c2c1 (single isomer, unassigned) [Example 311] | > 15

Same assay, conditions: cellular pAKT, 6 hours

Structure (SMILES) | IC50 [µM]
Cc1cc(C(C)Nc2ccccc2C(=O)O)c2cc(N3CCC4(CCOCC4)CC3)n(C)c(=O)c2c1 (single isomer, unassigned) [Example 166] | > 15
Cc1cc(C(C)Nc2ccccc2C(=O)O)c2cc(N3CCC4(CCOCC4)CC3)n(C)c(=O)c2c1 (single isomer, unassigned) [Example 167] | 2 to 15
Cc1cc(C(C)Nc2ccccc2C(=O)O)c2cc(N3CCC4(CCCCO4)CC3)n(C)c(=O)c2c1 (single isomer, unassigned) [Example 168] | 2 to 15
Cc1cc(C(C)Nc2ccccc2C(=O)O)c2cc(N3CCC4(CCCCO4)CC3)n(C)c(=O)c2c1 (single isomer, unassigned) [Example 169] | > 15
Cc1cc(C(C)Nc2ccccc2C(=O)O)c2cc(N3Cc4ccc(F)c(F)c4C3)n(C)c(=O)c2c1 (single isomer, unassigned) [Example 178] | > 15
Cc1cc(C(C)Nc2ccccc2C(=O)O)c2cc(N3CC(C)(O)C3)n(C)c(=O)c2c1 (single isomer, unassigned) [Example 182] | > 15
COC1(C)CN(c2cc3c(C(C)Nc4ccccc4C(=O)O)cc(C)cc3c(=O)n2C)C1 (single isomer, unassigned) [Example 213] | > 15
Cc1cc([C@@H](C)Nc2ccccc2C(=O)O)c2cc(N3CC4CC3CN4CC(F)(F)F)n(C)c(=O)c2c1 (single isomer, unassigned) [Example 224] | > 15
CCN1CCN(c2cc3c([C@@H](C)Nc4ccccc4C(=O)O)cc(C)cc3c(=O)n2C)CC1C(F)(F)F (single isomer, unassigned) [Example 267] | > 15
Cc1cc([C@@H](C)Nc2ccccc2C(=O)O)c2cc(N3CCN(C(C)C(F)(F)F)CC3)n(C)c(=O)c2c1 (single isomer, unassigned) [Example 279] | > 15
Cc1cc([C@@H](C)Nc2ccccc2C(=O)O)c2cc(N3CCN(C)C(C(F)(F)F)C3)n(C)c(=O)c2c1 (single isomer, unassigned) [Example 302] | > 15
COC[C@@H]1CC1c1cc2c([C@@H](C)Nc3ccccc3C(=O)O)cc(C)cc2c(=O)n1C (single isomer, unassigned) [Example 308] | 2 to 15

Source: patent US20260078103A1, “ISOQUINOLONES AS PI3K INHIBITORS” (OnKure, Inc., priority 2022, published 2026)
